Residues, ends and D or L forms follow the SMILES beside them.
Tested on: human FLS cells
Test: Cellular cytotoxicity by release of lactate dehydrogenase (LDH)
Type: cell-based
Settings: presence and absence of cytokine stimulation, 24 hr; IDR-1002 100 μg/ml, IDR-1 200 μg/ml; data not shown
Method: Synovial tissues were obtained from patients with OA in accordance to a protocol by the Institutional Review Board at the University of Manitoba. FLS cells were isolated from the synovial tissues following the procedure taught by Kammouni et al. (2007, Regulation of apoptosis in fibroblast-like synoviocytes by the hypoxia-induced Bcl-2 family member Bcl-2/adenovirus E1B 19-kd protein-interacting protein 3. Arthritis Rheum. 56:2854-2863). […] Cellular cytotoxicity was evaluated by monitoring the release of lactate dehydrogenase (LDH) employing a colorimetric detection kit (Roche Diagnostics, Laval, QC, Canada).
Inflammatory cytokines TNF-α and IL-1β stimulate cells types such as FLS, chondrocytes and macrophages resulting in the production of MMP-3 in arthritic joints. […] In this study we evaluated the impact of IDR peptides on TNF-α and IL-1β-induced MMP-3 production. […] The peptides were not cytotoxic to the FLS cells in the presence and absence of cytokine stimulation, as determined by monitoring the tissue culture supernatants for the release of LDH after 24 hr of stimulation (data not shown). Tissue culture supernatants were monitored after 24 hr of stimulation for MMP-3 production by ELISA. […]

## CC[C@H](C)[C@H](NC(=O)[C@H](CCCNC(=N)N)NC(=O)[C@H](CO)NC(=O)[C@@H](N)CCCCN)C(=O)N[C@H](C(=O)N1CCC[C@H]1C(=O)N[C@@H](C)C(=O)N[C@H](C(=O)N1CCC[C@H]1C(=O)N[C@H](C(=O)N[C@@H](CO)C(=O)N[C@@H](CC(C)C)C(=O)N[C@@H](CC(C)C)C(=O)O)C(C)C)[C@@H](C)CC)C(C)C [IDR-1, KSRIVPAIPVSLL, reference compound] (H-KSRIVPAIPVSLL-OH)
  cytotoxicity to FLS cells (release of LDH): not cytotoxic
